Calls of active or inactive are those of the source. The calls are words filed in the database; no cut-off is given here.

The test system of test [1] is HepG2. The test can be described thus: Cytotoxicity against human HepG2 cells at 10 to 100 uM after 24 hrs by MTT assay. The class given is functional, cell-based. Background: Tetrazolium dyes change colour on reduction, which living cells bring about.
Test [2] concerns SMMC-7721. The test can be described thus: Cytotoxicity against human SMMC7721 cells at 30 uM after 24 hrs by MTT assay. The class given is functional.
In test [3] the test system is Bel-7402. The test can be described thus: Cytotoxicity against human Bel7402 cells at 30 uM after 24 hrs by MTT assay. Format: functional.
The subject of test [4] is HepG2. The test can be described thus: Induction of intracellular NO release in human HepG2 cells at 30 uM after 6 hrs by Griess assay. Format: functional, cell-based. Background: Nitrite, measured by Griess reagent, commonly stands in for NO production.
The subject of test [5] is HepG2. Description: Cytotoxicity against human HepG2 cells at 30 uM after 24 hrs by MTT assay. The class given is functional.
Test [6] concerns HepG2. The test can be described thus: Induction of intracellular NO release in human HepG2 cells at 10 uM after 24 hrs by DAF-FM DA staining-based flow cytometry. Format: functional, cell-based. A general note: A flow cytometer gives signals particle by particle.
Test [7] relates to HepG2. Description: Cytotoxicity against human HepG2 cells assessed as cell viability at 3 uM after 24 hrs by MTT assay. Format: functional.
In test [8] the test system is HepG2. The test can be described thus: Cytotoxicity against human HepG2 cells assessed as cell viability at 3 uM after 24 hrs by MTT assay in presence of EA. The class given is functional.
Test [9] relates to HepG2. The test can be described thus: Cytotoxicity against human HepG2 cells assessed as cell viability at 3 uM after 24 hrs by MTT assay in presence of hemoglobin. The class given is functional, cell-based.

As to `CC1(C)CC[C@]2(C(=O)O[C@@H]3O[C@H](CO)[C@H](O)[C@H](O)[C@H]3O)CC[C@]3(C)C(=CC[C@@H]4[C@@]5(C)CC[C@H](O)C(C)(C)[C@@H]5CC[C@]43C)[C@@H]2C1`, the result in test [1] was Active.
Turning to `CN(CCO)/[N+]([O-])=N/Oc1cc(NCC(=O)O[C@H]2CC[C@]3(C)[C@H]4CC=C5[C@@H]6CC(C)(C)CC[C@]6(C(=O)O[C@@H]6O[C@H](CO)[C@H](O)[C@H](O)[C@H]6O)CC[C@@]5(C)[C@]4(C)CC[C@H]3C2(C)C)c([N+](=O)[O-])cc1[N+](=O)[O-]`, the outcome in test [2], in [3], in [4] and in [5] was Active.
In the case of `CCN(CC)/[N+]([O-])=N\Oc1cc(NCCC(=O)O[C@H]2CC[C@]3(C)[C@H]4CC=C5[C@@H]6CC(C)(C)CC[C@]6(C(=O)O[C@@H]6O[C@H](CO)[C@H](O)[C@H](O)[C@H]6O)CC[C@@]5(C)[C@]4(C)CC[C@H]3C2(C)C)c([N+](=O)[O-])cc1[N+](=O)[O-]`, the outcome in test [2], in [3] and in test [5] was Active.
For `CN(CCO)/[N+]([O-])=N\Oc1cc(NCCC(=O)O[C@H]2CC[C@]3(C)[C@H]4CC=C5[C@@H]6CC(C)(C)CC[C@]6(C(=O)O[C@@H]6O[C@H](CO)[C@H](O)[C@H](O)[C@H]6O)CC[C@@]5(C)[C@]4(C)CC[C@H]3C2(C)C)c([N+](=O)[O-])cc1[N+](=O)[O-]`, the outcome in [4] was Active.
For `CCOC(=O)N1CCN(/[N+]([O-])=N/Oc2ccc([N+](=O)[O-])cc2[N+](=O)[O-])CC1`, the outcome in test [6] was Active.
On to `CN(CCO)/[N+]([O-])=N/Oc1cc(N[C@@H](Cc2ccccc2)C(=O)O[C@H]2CC[C@]3(C)[C@H]4CC=C5[C@@H]6CC(C)(C)CC[C@]6(C(=O)O[C@@H]6O[C@H](CO)[C@H](O)[C@H](O)[C@H]6O)CC[C@@]5(C)[C@]4(C)CC[C@H]3C2(C)C)c([N+](=O)[O-])cc1[N+](=O)[O-]`, for which the outcome in test [2], in test [3] and in test [5] was Active.
As for `CN(CCO)/[N+]([O-])=N/Oc1cc(NCCCC(=O)O[C@H]2CC[C@]3(C)[C@H]4CC=C5[C@@H]6CC(C)(C)CC[C@]6(C(=O)O[C@@H]6O[C@H](CO)[C@H](O)[C@H](O)[C@H]6O)CC[C@@]5(C)[C@]4(C)CC[C@H]3C2(C)C)c([N+](=O)[O-])cc1[N+](=O)[O-]`, the outcome in [2], in test [3] and in test [5] was Active.
Take `C[C@H](Nc1cc(O/N=[N+](\[O-])N(C)CCO)c([N+](=O)[O-])cc1[N+](=O)[O-])C(=O)O[C@H]1CC[C@]2(C)[C@H]3CC=C4[C@@H]5CC(C)(C)CC[C@]5(C(=O)O[C@@H]5O[C@H](CO)[C@H](O)[C@H](O)[C@H]5O)CC[C@@]4(C)[C@]3(C)CC[C@H]2C1(C)C`: the result in [2], in test [3] and in test [5] was Active.
As for `CN(C)/[N+]([O-])=N\Oc1cc(NCCC(=O)O[C@H]2CC[C@]3(C)[C@H]4CC=C5[C@@H]6CC(C)(C)CC[C@]6(C(=O)O[C@@H]6O[C@H](CO)[C@H](O)[C@H](O)[C@H]6O)CC[C@@]5(C)[C@]4(C)CC[C@H]3C2(C)C)c([N+](=O)[O-])cc1[N+](=O)[O-]`, the outcome in test [2], in test [3] and in test [5] was Active.
Turning to `CN(CCO)/[N+]([O-])=N\Oc1cc(N2CCN(CC(=O)O)CC2)c([N+](=O)[O-])cc1[N+](=O)[O-]`, in test [1], the outcome was Active.
Take `CN1CCN(/[N+]([O-])=N\Oc2cc(NCCC(=O)O[C@H]3CC[C@]4(C)[C@H]5CC=C6[C@@H]7CC(C)(C)CC[C@]7(C(=O)O[C@@H]7O[C@H](CO)[C@H](O)[C@H](O)[C@H]7O)CC[C@@]6(C)[C@]5(C)CC[C@H]4C3(C)C)c([N+](=O)[O-])cc2[N+](=O)[O-])CC1`: the result in test [2], in test [3] and in [5] was Active.
As to `CC(C)C[C@H](Nc1cc(O/N=[N+](\[O-])N(C)CCO)c([N+](=O)[O-])cc1[N+](=O)[O-])C(=O)O[C@H]1CC[C@]2(C)[C@H]3CC=C4[C@@H]5CC(C)(C)CC[C@]5(C(=O)O[C@@H]5O[C@H](CO)[C@H](O)[C@H](O)[C@H]5O)CC[C@@]4(C)[C@]3(C)CC[C@H]2C1(C)C`, the result in [2], in test [3] and in test [5] was Active.
As for `CN(CCO)c1cc(N2CCN(CC(=O)O[C@H]3CC[C@]4(C)[C@H]5CC=C6[C@@H]7CC(C)(C)CC[C@]7(C(=O)O[C@@H]7O[C@H](CO)[C@H](O)[C@H](O)[C@H]7O)CC[C@@]6(C)[C@]5(C)CC[C@H]4C3(C)C)CC2)c([N+](=O)[O-])cc1[N+](=O)[O-]`, the outcome in [7], in test [1] and in test [8] was Active. In addition, the result in test [9] was inactive.
For the molecule `CC1(C)CC[C@]2(C(=O)O[C@@H]3O[C@H](CO)[C@H](O)[C@H](O)[C@H]3O)CC[C@]3(C)C(=CC[C@@H]4[C@@]5(C)CC[C@H](OC(=O)CCNc6cc(O/N=[N+](/[O-])N7CCN(Cc8ccccc8)CC7)c([N+](=O)[O-])cc6[N+](=O)[O-])C(C)(C)[C@@H]5CC[C@]43C)[C@@H]2C1`, the outcome in test [2], in test [3] and in [5] was Active.

The values are drawn from ChEMBL document CHEMBL2396531, “Hybrid molecule from O2-(2,4-dinitrophenyl)diazeniumdiolate and oleanolic acid: a glutathione S-transferase π-activated nitric oxide prodrug with selective anti-human hepatocellular carcinoma activity and improved stability” (J Med Chem, 2013).
